Experimental data as given in patent publication US20250352525A1, “COMPOSITIONS AND METHODS OF TREATING TRAUMATIC BRAIN INJURY” (United States Government As Represented By The Department …, priority 2024, published 2025).

Legend:
hsSTING = hsSTING (Homo sapiens, UniProt Q86WV6); details: covalent small-molecule inhibitor; cited from earlier work
mmSTING = molecular target: T1, mmSTING (Mus musculus, UniProt Q3TBT3); details: covalent small-molecule inhibitor; cited from earlier work
T1 sequence (Q3TBT3 1-378): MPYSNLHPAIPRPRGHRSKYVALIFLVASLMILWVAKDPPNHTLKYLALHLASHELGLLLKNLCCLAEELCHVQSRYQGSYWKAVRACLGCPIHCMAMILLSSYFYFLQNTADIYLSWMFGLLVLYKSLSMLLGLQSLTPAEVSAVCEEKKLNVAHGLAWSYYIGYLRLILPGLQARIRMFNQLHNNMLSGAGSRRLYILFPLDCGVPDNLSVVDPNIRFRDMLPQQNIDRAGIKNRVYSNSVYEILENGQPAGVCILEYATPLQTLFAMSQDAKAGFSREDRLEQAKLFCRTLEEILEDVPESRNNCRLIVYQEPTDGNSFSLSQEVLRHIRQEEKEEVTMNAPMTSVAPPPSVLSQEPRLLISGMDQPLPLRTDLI

IBA1 [1] = assay: Immunocytochemistry of IBA1 in poly (I:C)-stimulated BV2 microglial cells, integrated density (ImageJ); assay type: cell-based; details: pre-treated 2 h, then poly (I:C) 6 h, normalized to blank
Protocol: (§1) Experimental design: IMG or BV2 cells were plated in a 96-well or 6-well plate and allowed to adhere overnight. Plates were dosed with clonixeril for 2 hours and then LPS or polyinosinic-polycytidylic acid (polyIC) for 24 hours to induce inflammation. Ionized calcium-binding adaptor molecule 1 (IBA1) and pSTING expression were imaged and immunohistochemistry was measured (ImageJ).
Controls used are a blank (untreated); and 25 ng/ml poly (I:C) treatment for 6 h. Immunocytochemistry of BV2 cells pre-treated with a known STING inhibitor H151, clonixeril or a ketone analogue of clonixin (e.g., clonixin butyl ketone) for 2 h and then treated with poly (I:C) for 6 h, stained with IBA1 antibody (red) and DAPI (blue) to visualize nuclei. […] Separate channels were quantified by ImageJ for IBA1 (red) and DAPI (blue) pixel density. A ratio of red signal to blue signal was calculated for each image. Ratios were averaged for each experimental group and normalized to the blank (control) group.

CCL20 = assay: qPCR for CCL20 in PolyIC-stimulated BV2 cells; assay type: cell-based; details: dosed 2 hours, then PolyIC 24 hours
Protocol: (§2) Experimental design: BV2 cells were plated in a 6-well plate and allowed to adhere overnight. Plates were dosed with clonixin butyl ketone or H151 for 2 hours and then PolyIC for 24 hours to induce inflammation. qPCR was performed to measure expression of CCL20 and IL-6 inflammatory genes and immunomodulatory Irf-3 gene.

IL-6 = assay: qPCR for IL-6 in PolyIC-stimulated BV2 cells; assay type: cell-based; details: dosed 2 hours, then PolyIC 24 hours
Protocol: as §2

Irf-3 = assay: qPCR for Irf-3 in PolyIC-stimulated BV2 cells; assay type: cell-based; details: dosed 2 hours, then PolyIC 24 hours
Protocol: as §2

pSTING [2] = assay: Immunocytochemistry of pSTING in poly (I:C)-stimulated HT22 hippocampal cells, integrated density (ImageJ); assay type: cell-based, mouse; details: pre-treated 2 h, then poly (I:C) 6 h, normalized to blank
Protocol: Cells were untreated, or pre-treated with vehicle or STING-inhibitory compounds H151, a ketone analog of clonixin (e.g., clonixin butyl ketone), clonixeril (CXL) for 2 h and then treated with poly (I:C) for 6 h. Cells were then stained with DAPI (blue, top row) to visualize nuclei and pSTING antibody (red, bottom 5 row). Images are presented separately for enhanced clarity. Scale bar 100 μm.
Error bars represent mean ±standard deviation (SD). Separate channels were quantified by ImageJ for pSTING (red) and DAPI (blue) pixel density. A ratio of red signal to blue signal was calculated for each image. Ratios were averaged for each experimental group and normalized to the blank (control) group.

[3] = tested on: phosphorylated STING (pSTING); assay: Western blot for pSTING in poly (I:C)-stimulated HT22 hippocampal cells; assay type: cell-based, mouse; details: 100 pM pre-treatment 2 h, then poly (I:C) 6 h
Protocol: Immunoblot analysis of phosphorylated STING (pSTING) and β-actin in HT22 mouse hippocampal cells. Cells were pre-treated with 100 pM ketone analog of clonixin (e.g., clonixin butyl ketone) for 2 h, followed by 6 h stimulation with poly (I:C). Cell lysates were harvested at indicated time points using RIPA buffer supplemented with 1× Halt Protease and Phosphatase Inhibitor Cocktail, quantified via Bradford assay, and normalized to 20 μg protein per well. Lysates were resolved by SDS-PAGE and probed with rabbit polyclonal anti-pSTING and anti-β-actin antibodies.

IBA1 [4] = assay: Immunocytochemistry of IBA1 in LPS-stimulated IMG cells, integrated density (ImageJ); assay type: cell-based; details: pre-treated 2 h, then LPS 24 h, normalized to blank
Protocol: as §1
(§3) Cells were untreated, or pre-treated with vehicle or STING-inhibitory compound clonixeril for 2 h and then treated with LPS for 24 h. Cells were then stained with DAPI (blue) to visualize nuclei, IBA1 or pSTING antibody (red). Images are presented separately for enhanced clarity. […] Error bars represent mean ±standard deviation (SD). Separate channels were quantified by ImageJ for IBA1 or pSTING (red) and DAPI (blue) pixel density. A ratio of red signal to blue signal was calculated for each image. Ratios were averaged for each experimental group and normalized to the blank (control) group.

pSTING [5] = assay: Immunocytochemistry of pSTING in LPS-stimulated IMG cells, integrated density (ImageJ); assay type: cell-based; details: pre-treated 2 h, then LPS 24 h, normalized to blank
Protocol: as §1, §3

Chain of hsSTING (Q86WV6 whole entry H232R): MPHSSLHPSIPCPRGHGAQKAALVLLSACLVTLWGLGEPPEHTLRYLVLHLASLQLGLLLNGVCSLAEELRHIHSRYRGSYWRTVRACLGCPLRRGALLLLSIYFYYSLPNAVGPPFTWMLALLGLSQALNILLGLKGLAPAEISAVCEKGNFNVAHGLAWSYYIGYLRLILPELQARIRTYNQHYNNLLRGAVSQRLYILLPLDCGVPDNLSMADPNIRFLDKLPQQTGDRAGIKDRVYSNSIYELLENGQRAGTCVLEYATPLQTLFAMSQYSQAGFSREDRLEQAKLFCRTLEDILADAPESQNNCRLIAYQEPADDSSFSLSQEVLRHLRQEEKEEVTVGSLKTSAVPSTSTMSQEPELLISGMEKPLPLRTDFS

Compound	inhibition of hsSTING (hsSTING)	inhibition of mmSTING (mmSTING)	IBA1 integrated density (IBA1 [1])	CCL20 expression at 1 picomolar concentration (CCL20)	expression of CCL20 (qPCR) (CCL20)	expression of IL-6 (qPCR) (IL-6)	expression of interferon regulatory gene Irf3 (qPCR) (Irf-3)	pSTING (immunocytochemistry, integrated density) (pSTING [2])	IL-6 expression at 1 picomolar concentration (IL-6; 1 picomolar)	poly (I:C)-induced STING phosphorylation (Western blot, normalized to β-actin) [3]	IBA1 integrated density (IBA1 [4])	pSTING integrated density (pSTING [5])
CCCCCCc1ccc(NC(=O)c2ccc([N+](=O)[O-])o2)cc1 [C-171, N-(4-hexylphenyl)-5-nitro-2-furancarboxamide]	efficiently inhibits	efficiently inhibits	–	–	–	–	–	–	–	–	–	–
CCc1ccc(NC(=O)Nc2c[nH]c3ccccc23)cc1 [H151]	–	–	reduction	but not H151 showed a significant reduction	significantly decreased	significantly decreased	reduced significantly	reduction	–	–	–	–
CCCCC(=O)c1cccnc1Nc1cccc(Cl)c1C [clonixin butyl ketone, {2-[(3-chloro-2-methylphenyl)amino]pyridin-3-yl}-1-pentanone]	–	–	reduction	significant reduction	significantly decreased	significantly decreased	reduced significantly	reduction	significant reduction	inhibition	–	–
clonixeril	–	–	reduction	–	–	–	–	reduction	–	–	reduction	reduction
